Data published in patent publication US20230265116A1, “DEGRADATION OF (EGFR) BY CONJUGATION OF EGFR INHIBITORS WITH E3 LIGASE LIGAND AND METHODS OF USE” (BEIGENE, LTD., priority 2020, published 2023).
Read-outs that look alike come from different tables or passages of the source.

Key:
[1] = tested on: EGFR Del19/T790M/C797S (H1975-clone #28); assay: EGFR degradation HTRF assay, H1975-clone #28 DTC cells; assay type: cell-based
How it was run: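 The test uses H1975 clonal lines carrying lentiviral mutant EGFR with endogenous copies removed, treated 16h at 37° C., 5% CO2. EGFR left in the lysate is quantified by HTRF, and DC50 is derived from an 8-dose curve starting at 10 uM final.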

[2] = target: T1, EGFR L858R/T790M/C797S (BaF3-LTC cells) (Homo sapiens, UniProt P00533, C797S/L858R/T790M); assay: EGFR degradation HTRF assay, BaF3-LTC cells; assay type: cell-based
T1 construct: expressed in transfected cells; host or cells: BaF3
How it was run: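 Cells treated 16 h at 37 °C, 5% CO2 in medium with 0.2% DMSO; top final concentration 10 uM, 5-fold dilution, 8 doses. Lysates read by HTRF (665/620 nm); degradation % versus DMSO high control, DC50 from four-parameter fit, Dmax as maximal degradation.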

[3] = H1975 # 28 DTC cells; EGFR degradation, IC50 (DC50) from curve fit; read-out: DC50(nM) H1975 # 28 DTC
[4] = H1975 # 28 DTC cells; maximum percentage of inhibition (degradation)
[5] = BaF3-LTC cells; EGFR degradation, IC50 (DC50) from curve fit; read-out: DC50(nM) BaF3-LTC
[6] = BaF3-LTC cells; maximum percentage of inhibition (degradation); read-out: Dmax (%) BaF3-LTC

T1 sequence (P00533 25-1210 T790M/C797S/L858R): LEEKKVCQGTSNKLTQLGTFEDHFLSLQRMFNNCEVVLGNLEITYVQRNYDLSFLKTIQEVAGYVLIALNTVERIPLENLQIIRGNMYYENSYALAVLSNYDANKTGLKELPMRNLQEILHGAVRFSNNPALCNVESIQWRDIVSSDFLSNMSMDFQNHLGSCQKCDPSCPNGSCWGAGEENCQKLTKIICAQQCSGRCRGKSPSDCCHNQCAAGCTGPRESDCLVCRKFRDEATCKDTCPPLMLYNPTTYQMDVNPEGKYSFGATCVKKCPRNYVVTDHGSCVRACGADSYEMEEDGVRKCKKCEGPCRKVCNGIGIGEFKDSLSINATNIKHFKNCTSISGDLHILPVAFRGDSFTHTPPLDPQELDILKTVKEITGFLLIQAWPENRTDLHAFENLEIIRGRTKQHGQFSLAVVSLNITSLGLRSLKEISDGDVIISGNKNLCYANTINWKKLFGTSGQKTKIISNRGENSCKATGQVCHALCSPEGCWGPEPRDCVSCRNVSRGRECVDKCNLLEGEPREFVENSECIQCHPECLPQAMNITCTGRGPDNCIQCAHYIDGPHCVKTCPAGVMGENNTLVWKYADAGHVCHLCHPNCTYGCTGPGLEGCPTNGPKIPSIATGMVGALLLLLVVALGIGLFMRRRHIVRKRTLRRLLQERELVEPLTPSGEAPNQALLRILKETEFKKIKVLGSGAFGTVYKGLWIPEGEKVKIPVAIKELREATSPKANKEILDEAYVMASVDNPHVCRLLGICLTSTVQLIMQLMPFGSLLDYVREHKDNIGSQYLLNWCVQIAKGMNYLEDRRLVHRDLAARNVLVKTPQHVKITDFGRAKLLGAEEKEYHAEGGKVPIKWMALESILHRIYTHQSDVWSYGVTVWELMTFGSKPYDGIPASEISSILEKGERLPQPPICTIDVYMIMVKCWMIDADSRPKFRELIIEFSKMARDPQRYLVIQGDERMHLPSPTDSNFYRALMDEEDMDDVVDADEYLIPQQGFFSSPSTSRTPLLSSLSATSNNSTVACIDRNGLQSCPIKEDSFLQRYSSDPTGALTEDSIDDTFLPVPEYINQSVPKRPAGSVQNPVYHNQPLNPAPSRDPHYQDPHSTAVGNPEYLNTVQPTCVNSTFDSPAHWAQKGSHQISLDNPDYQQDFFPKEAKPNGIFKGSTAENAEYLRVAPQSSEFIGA

Row | SMILES | DC50 [1, 3] | Dmax (%) H1975 # 28 DTC [1, 4] | DC50 [2, 5] | Dmax [2, 6] | DC50 ([1]; read-out: DC50(nM) H1975 # 28 DTC; H1975 # 28 DTC cells; EGFR degradation, IC50 (DC50) from curve fit) | DC50 ([2]; read-out: DC50(nM) BaF3-LTC; BaF3-LTC cells; EGFR degradation, IC50 (DC50) from curve fit) | Dmax ([2]; read-out: Dmax (%) BaF3-LTC, BaF3-LTC cells; maximum percentage of inhibition (degradation))
1 | CCc1ccc2c(P(C)(C)=O)c(Nc3nc(Nc4cc(CC)c(N5CCC(N6CCN(CC[C@H]7CCN(c8cc(F)c(C9CCC(=O)NC9=O)c(F)c8)C7)CC6)CC5)cc4OC)ncc3Br)ccc2n1 (stereo partly drawn) [Example 650, 3-(4-((S)-3-(2-(4-(1-(4-((5-bromo-4-((5-(dimethylphosphoryl)-2-ethylquinolin-6-yl)amino)pyrimidin-2-yl)amino)-2-ethyl-5-methoxyphenyl)piperidin-4-yl)piperazin-1-yl)ethyl)pyrrolidin-1-yl)-2,6-difluorophenyl)piperidine-2,6-dione] | 3.39 nM | 59.93% | 16 nM | 75% |  |  | 
2 | CCc1cc(Nc2ncc(Br)c(Nc3ccc4ccnnc4c3P(C)(C)=O)n2)c(OC)cc1N1CCC(N2CCN(C(=O)[C@@H]3CCN(c4cc(F)c([C@H]5CCC(=O)NC5=O)c(F)c4)C3)CC2)CC1 [Example 656, (R)-3-(4-((R)-3-(4-(1-(4-((5-bromo-4-((8-(dimethylphosphoryl)cinnolin-7-yl)amino)pyrimidin-2-yl)amino)-2-ethyl-5-methoxyphenyl)piperidin-4-yl)piperazine-1-carbonyl)pyrrolidin-1-yl)-2,6-difluorophenyl)piperidine-2,6-dione] | 1.66 nM | 83.91% | 5.22 nM | 83.6% |  |  | 
3 | CCc1cnc2c(P(C)(C)=O)c(Nc3nc(Nc4cc(CC)c(N5CCC(N6CCN(CCc7ccc8c(c7)oc(=O)n8C7CCC(=O)NC7=O)CC6)CC5)cc4OC)ncc3Br)ccc2n1 (centres unmarked) [Example 548, 3-(6-(2-(4-(1-(4-((5-bromo-4-((5-(dimethylphosphoryl)-2-ethylquinoxalin-6-yl)amino)pyrimidin-2-yl)amino)-2-ethyl-5-methoxyphenyl)piperidin-4-yl)piperazin-1-yl)ethyl)-2-oxobenzo[d]oxazol-3(2H)-yl)piperidine-2,6-dione] |  | 74.38% |  |  | 0.696 nM | 3.63 nM | 91.8%
4 | [2H]C1([2H])CC([2H])(c2c(F)cc(CCN3CCN(C4CCN(c5cc(OCC)c(Nc6ncc(Br)c(Nc7ccc8nc(C)ccc8c7P(C)(C)=O)n6)cc5CC)CC4)CC3)cc2F)C(=O)NC1=O (centres unmarked) [Example 570, 3-(4-(2-(4-(1-(4-((5-bromo-4-((5-(dimethylphosphoryl)-2-methylquinolin-6-yl)amino)pyrimidin-2-yl)amino)-5-ethoxy-2-ethylphenyl)piperidin-4-yl)piperazin-1-yl)ethyl)-2,6-difluorophenyl)piperidine-2,6-dione-3,5,5-d3] | 3.03 nM | 76.54% | 20.5 nM |  |  |  | 
5 | CCc1cc(Nc2ncc(Br)c(Nc3ccc4nc(C)ccc4c3P(C)(C)=O)n2)c(OC)cc1N1CCC(N2CCN(C(=O)C3CCN(c4cc(F)c(C5CCC(=O)NC5=O)c(F)c4)CC3)CC2)CC1 (centres unmarked) [Example 517, 3-(4-(4-(4-(1-(4-((5-bromo-4-((5-(dimethylphosphoryl)-2-methylquinolin-6-yl)amino)pyrimidin-2-yl)amino)-2-ethyl-5-methoxyphenyl)piperidin-4-yl)piperazine-1-carbonyl)piperidin-1-yl)-2,6-difluorophenyl)piperidine-2,6-dione] | 0.968 nM | 58.8% | 7 nM | 91.3% |  |  | 
6 | CCOc1cc(N2CCC(N3CCN(CCc4ccc(F)c5c4n(CC)c(=O)n5C4CCC(=O)NC4=O)CC3)CC2)c(CC)cc1Nc1ncc(Br)c(Nc2cc(F)c3nc(CC)ccc3c2P(C)(C)=O)n1 (centres unmarked) [Example 603, 3-(4-(2-(4-(1-(4-((5-bromo-4-((5-(dimethylphosphoryl)-2-ethyl-8-fluoroquinolin-6-yl)amino)pyrimidin-2-yl)amino)-5-ethoxy-2-ethylphenyl)piperidin-4-yl)piperazin-1-yl)ethyl)-3-ethyl-7-fluoro-2-oxo-2,3-dihydro-1H-benzo[d]imidazol-1-yl)piperidine-2,6-dione] | 1.57 nM | 81.2% | 7.62 nM | 91.2% |  |  | 
